According to paper PMC7394103 (Frontiers in Pharmacology, 2020):

Experiments:
[1] = test system: c-Jun phosphorylation in FLS; assay: c-Jun phosphorylation in IL-1β-stimulated FLS (Western blot); type: cell-based, human; details: 1 h pretreatment, 2 ng/ml IL-1β 15 min
Description: Cultured FLS (passage 4) were plated at 2 × 10^5 cells in six-well plates overnight in DMEM containing 10% FBS and synchronized for 24 h in DMEM/0.1% FBS. […] The cells were then washed once with ice-cold PBS and lysed with modified radioimmunoprecipitation assay buffer [50 mM HEPES, pH 7.4, 150 mM NaCl, 1% Triton X-100, 10% glycerol, 2.5 mM MgCl2, 1.0 mM EDTA, 20 mM β-glycerophosphate, 10 mM NaF, 1 mM Na3VO4, and Protease inhibitor cocktail (Roche, Indianapolis, IN)]. Protein concentration of the lysates was measured using a MicroBCA Assay kit (Pierce, Rockford, IL), and 40 μg lysate was subjected to 10% SDS-PAGE and Western blot analysis. Anti–phospho-c-Jun (Ser63) was purchased from Cell Signaling Technology (Danvers, MA), and anti-mouse GAPDH was from Santa Cruz Biotechnology (Santa Cruz, CA).

[2] = test system: MMP-3 secretion by HUVEC; assay: IL-1β-induced MMP-3 secretion by HUVEC (ELISA); type: cell-based; details: Homo sapiens, 30 min compound, then 5 ng/ml IL-1β, 24 h
Description: (§1) FLS, HUVEC, SW982, and THP-1 cells were plated in 96 well plates (10^4 to 10^5 cells/well) for 48 h before treatment. At 2 days post-confluency, the cells were serum-starved and washed twice (with the exception of THP-1 cell, which were not washed) with FBS-free medium prior to the addition of test compounds. The cells were incubated in the presence or absence of test compounds or DMSO (vehicle control) for 30 min at 37°C in a 5% CO2 atmosphere, IL-1β (5 ng/ml) was added, and the cells were incubated for an additional 24 h. Culture supernatants were collected and stored at –80°C. The levels of MMP-1 and MMP-3 were determined in culture supernatants using commercially available ELISA kits according to the manufacturer’s instructions (R&D System, Minneapolis, MN, USA). IL-6 levels were also determined in the supernatants using a human IL-6 ELISA kit (BD Biosciences, San Jose, CA, USA).

[3] = Cytotoxicity assay (CellTiter-Glo), THP-1; type: cell-based; details: human, THP-1 cells; concentrations up to 50 µM; read-out: Cytotoxic effect THP-1 IC50
Description: (§2) Cytotoxicity was analyzed using a CellTiter-Glo Luminescent Cell Viability Assay Kit (Promega), according to the manufacturer’s protocol. Briefly, cells were cultured at a density of 10^4 to 10^5 cells/well with different concentrations of test compounds (final concentration of DMSO was 1%) for the indicated periods of time (2, 12, or 24 h) at 37°C and 5% CO2. Following treatment, substrate was added to the cells, and the samples were analyzed with a Fluoroscan Ascent FL microplate reader.

[4] = test system: MMP-3 secretion by FLS; assay: IL-1β-induced MMP-3 secretion by FLS (ELISA); type: cell-based; details: Homo sapiens; 30 min compound, then 5 ng/ml IL-1β, 24 h
Source text: This study was approved by the Institutional Review Board of University of California, San Diego School of Medicine (La Jolla, CA, USA). Informed consent was obtained from all participants. Anonymous synovial tissue samples were obtained from six patients with RA at the time of total joint replacement (5 females, 1 male; age range, 44–72 years), as previously described ([Alvaro-Gracia et al., 1990]). The diagnosis of RA conformed to American College of Rheumatology 1987 revised criteria ([Arnett et al., 1988]). The synovium was minced and incubated with collagenase type VIII (0.5 mg/ml) (Sigma-Aldrich) in serum-free RPMI-1640 (Life Technologies, Grand Island, NY, USA) for 2 h at 37°C, filtered, extensively washed, and cultured in DMEM (Life Technologies) supplemented with 10% FBS (Gemini Bio Products, Calabasas, CA, USA), penicillin, streptomycin, gentamicin, and glutamine in a humidified 5% CO2 atmosphere. […]
FLS, HUVEC, SW982, and THP-1 cells were plated in 96 well plates (10^4 to 10^5 cells/well) for 48 h before treatment. […] The levels of MMP-1 and MMP-3 were determined in culture supernatants using commercially available ELISA kits according to the manufacturer’s instructions (R&D System, Minneapolis, MN, USA). IL-6 levels were also determined in the supernatants using a human IL-6 ELISA kit (BD Biosciences, San Jose, CA, USA).

[5] = test system: JNK2; parameters: method as in Schepetkin et al., 2019; details: kinase profiling; ref Schepetkin et al., 2019; cited from earlier work
[6] = test system: MMP-3 secretion by SW982 cells; assay: IL-1β-induced MMP-3 secretion by SW982 cells (ELISA); type: cell-based; details: Homo sapiens, 30 min compound, then 5 ng/ml IL-1β, 24 h
Description: as §1

[7] = Cytotoxicity assay (CellTiter-Glo), HUVEC; type: cell-based; details: human, HUVECs; concentrations up to 50 µM; read-out: Cytotoxic effect HUVEC IC50
Description: as §2

[8] = test system: MMP3 gene expression in FLS; assay: MMP3 gene expression in IL-1β-stimulated FLS (qPCR); type: cell-based, human; details: 4, 10, 25 µM, 1 h before IL-1β (2 ng/ml) for 6 h, vs vehicle
Description: For MMP mRNA analysis, FLS were plated in six-well plates, cultured until 80% confluence, and subsequently serum starved (1% FBS/DMEM) for 24 h. […] The mRNA was isolated and reverse transcribed to obtain cDNA. Quantitative real-time polymerase chain reaction was performed using primer probe sets for MMP3 and glyceraldehyde 3-phosphate dehydrogenase (GAPDH) (Life Technologies). Threshold cycle values were obtained and normalized to GAPDH expression.

[9] = target: T1, AChE (Homo sapiens, UniProt P22303); assay: AChE inhibition assay (Ellman-based kit); type: biochemical; details: concentration causing 30% inhibition
T1 construct: purchased Sigma-Aldrich
T1 sequence (P22303 32-614): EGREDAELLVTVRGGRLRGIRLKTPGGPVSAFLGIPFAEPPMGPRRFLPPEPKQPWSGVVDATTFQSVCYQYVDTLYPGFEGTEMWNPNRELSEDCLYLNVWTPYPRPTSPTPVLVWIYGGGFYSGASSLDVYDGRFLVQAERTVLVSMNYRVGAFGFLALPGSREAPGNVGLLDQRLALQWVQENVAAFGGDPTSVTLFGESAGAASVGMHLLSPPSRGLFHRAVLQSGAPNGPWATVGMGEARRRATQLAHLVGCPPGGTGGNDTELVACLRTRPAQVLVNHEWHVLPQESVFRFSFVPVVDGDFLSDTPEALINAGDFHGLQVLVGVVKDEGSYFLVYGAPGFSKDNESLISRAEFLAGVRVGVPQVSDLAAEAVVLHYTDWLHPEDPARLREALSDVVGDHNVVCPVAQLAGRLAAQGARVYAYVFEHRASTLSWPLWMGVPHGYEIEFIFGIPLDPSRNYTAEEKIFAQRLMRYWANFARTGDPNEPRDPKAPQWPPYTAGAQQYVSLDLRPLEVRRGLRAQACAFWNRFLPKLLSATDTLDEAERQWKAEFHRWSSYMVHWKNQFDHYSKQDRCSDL
Description: The inhibitory effect of test compounds on AChE activity was performed using an AChE inhibitor screening kit from Sigma-Aldrich. The kit is based on an improved Ellman method, whereby thiocholine produced from AChE activity forms a yellow color with 5,5’-dithiobis(2-nitrobenzoic acid), and the intensity the color (412 nm) is proportional to enzyme activity. […] IC30 was obtained by graphing the % inhibition of enzyme activity versus the logarithm of concentration of test compound using 5–7 tested concentrations.

SMILES	c-Jun phosphorylation [1]	IC50 [2] [µM]	IC50 [3] [µM]	IC50 [4] [µM]	binding affinity for JNK2 [5]	IC50 [6] [µM]	IC50 [7] [µM]	MMP3 mRNA levels [8]	AChE inhibition IC30 [9] [µM]
O=C1c2ccccc2-n2c1nc1ccccc1c2=O [TRYP, indolo[2,1-b]quinazolin-6,12-dione]	had no effect	12.8 ± 4.4	18.2 ± 2.3	12.7 ± 4.6	no binding affinity	8.7 ± 0.3	13.8 ± 1.5	dose-dependent reduction	4.2 ± 1.2
O=c1c2ccccc2nc2n1-c1ccccc1/C2=N/O [TRYP-Ox, tryptanthrin-6-oxime]	inhibited c-Jun phosphorylation	15.9 ± 5.8	> 50	3.8 ± 0.4	high binding affinity	1.4 ± 0.1	> 50	dose-dependent reduction	12.0 ± 3.9
